From patent publication US20240207282A1, “METHOD OF INCREASING CHAPERONE MEDIATED AUTOPHAGY BY STABILIZING THE INTERACTION OF RETINOIC ACID RECEPTOR-ALPHA AND AN INHIBITOR” (ALBERT EINSTEIN COLLEGE OF MEDICINE, priority 2021, published 2024)

Assays:
rd10 mice = experiment: rd10 mouse retinal degeneration, systemic (i.p.) administration; type: in vivo
Source text: Animals: C57BL/6J mice wild-type (WT) and homozygous for the Pde6 mutation (rd10 mouse model of retinal degeneration) were obtained from The Jackson Laboratory. C57BL/6 KFERQ-Dendra mice were generated by back-crossing FVB KFERQ-Dendra mice with wild-type C57BL/6 mice for 8 generations. Both male and female animals were used in this study in equal distribution groups. However, results from both sexes were pooled, because of absence of significant differences in any of the parameters analyzed after statistical analysis with a mixed model of two-way ANOVA sex and treatment as independent variables and the corresponding measure as dependent variable. All animals were housed in a barrier-controlled facility (19-23° C. 30-60% relative humidity; 12-h light/dark cycle) with ad libitum access to standard chow pellets and water. For animal administration of CA compounds, a formula containing 30% PEG 400, 65% glucose solution (5%), 5% Tween 80 was used to dissolve them. CA compounds were prepared freshly by adding 5% DMSO and sonicating for 1 h. Treatment of KFERQ-Dendra mice with the CA compounds was done by i.p. daily injection of 30 mg/kg bw or vehicle for three consecutive days and tissues collected 6 h after the last injection. In the case of rd10 mice, animals were daily injected from P18 to P25 with CA77 (40 mg/kg bw). At P26, mice were sacrificed, and eyes fixed overnight with 4% PFA in PBS at 4° C. for immunofluorescence or retinas dissected and immediately frozen for biochemistry. Distribution of animals in the vehicle or treatment group was done randomly. All animal studies and procedures complied with ethical regulations, were performed in accordance with the European Union guidelines and the ARVO Statement for the Use of Animals in Ophthalmic and Vision Research and were approved by the Institutional Animal Care and Use Committee at the Albert Einstein College of Medicine, the CSIC Bioetica Comite and approved by the Comunidad de Madrid, PROEX232/17.
Cryosections and immunofluorescence: Cryosections and immunofluorescence in retinal sections were performed as previously described 10. Primary antibodies used in this study were Transducin (Santacruz Biotechnologies) and Opsin R/G (Millipore). Sections were visualized by confocal microscopy (TCS SP5; Leica Microsystems).
ONL thickness and outer segment length quantification: For ONL thickness quantification, DAPI images were taken at 40× in a fluorescence microscope Multidimensional system Leica AF6000 LX coupled to DMI600B microscope and Hamamatsu CCD 9100-02 camera. At least two sections per animal were analyzed, preferably central sections. Eight images per retina equally distributed along the retina were acquired. Three measures were taken per image and ratio ONL/INL quantified with ImageJ tools. Leica LAS-X was used for image acquisition and ImageJ (v.2.1.0) was used for image processing. For OS length measures, fixed positions common to all pictures were considered and OS length was measured using ImageJ straight line tool.
Mice were dark adapted overnight, and subsequent manipulations were performed in dim red light. Mice were anesthetized with intraperitoneal injections of ketamine (95 mg/kg) and xylazine (5 mg/kg) solution and maintained on a heating pad at 37° C. Pupils were dilated with a drop of 1% tropicamide (Colircusi Tropicamida; Alcon Cusi). To optimize electrical recording, a topical drop (2% Methocel; Hetlingen) was instilled on each eye immediately before situating the corneal electrode. Flash-induced ERG responses were recorded from the right eye in response to light stimuli produced with a Ganzfeld stimulator. Light intensity was measured with a photometer at the level of the eye (Mavo Monitor USB; Nürenberg). Four to 64 consecutive stimuli were averaged with an interval between light flashes in scotopic conditions of 10 s for dim flashes and of up to 60 s for the highest intensity. Under photopic conditions, the interval between light flashes was fixed at 1 s. […]

NIH3T3 [1] = experiment: Macroautophagy activity (LC3-II flux, mCherry-GFP-LC3 reporter); type: cell-based, mouse; conditions: 20 μM 16 h (LC3 flux)
Description: Macroautophagy activity: Cells were transduced with a lentiviral vector expressing mCherry-GPF-LC3^32, fixed and flux determined as the conversion of dual fluorescence puncta (autophagosomes) into only red fluorescent puncta (autolysosomes). Flux was also measured by immunoblot for LC3 in cells incubated for 6 h with 20 mM NH4Cl/100 μM leupeptin, by discounting the intensity of LC3 in non-treated cells from that in cells treated with the inhibitors.

[2] = test system: retinal explants of rd10 mice; experiment: Ex vivo retinal explants of rd10 mice; design: species or system mouse; conditions: 10 μM, 24 h; vs contralateral untreated explant
Description: Ex-vivo retinal cultures: After removal of the eyes, all non-relevant tissue was removed from the neuroretina, which was then placed, photoreceptors upside down, in millicell support inserts (Millipore) and maintained in DMEM with 1 μM insulin (SIGMA, I2643-25 mg) for 24 h at 37° C. in a 5% CO2 atmosphere. Where indicated, retinas were incubated with 10 µM CA77 for the indicated times. The retinas were then washed twice with phosphate-buffered saline (PBS), fixed overnight in 4% paraformaldehyde (w/v) in 0.1 M phosphate buffer (pH 7.4) and processed.
Staining of whole-mount retinas: Immunostainings were performed overnight at 4° ° C. using antibodies against visual arrestin (Santacruz Biotechnologies) and Opsin R/G (Millipore) after initial permeabilization with 2% Triton X-100 for 1 h at RT and subsequent incubation with blocking solution (10% normal goat serum, 0.25% Triton X-100 in PBS). The retinas were then washed and incubated for 1 h with Alexa 568 or 647 (Invitrogen), counterstained with DAPI, mounted in Fluoromount, and visualized by confocal microscopy in a SP5 confocal microscope (TCS SP5; Leica Microsystems).

NIH3T3 cells = conditions: previously reported; cited from earlier work
NIH3T3 [3] = experiment: Cell viability under paraquat oxidative stress; type: cell-based, mouse
Description: Cells: NIH3T3 mouse fibroblasts and the N2a neuroblastoma cell line were obtained from the American Type Culture Collection and were validated by genomic PCR. Primary human fibroblasts (GM01651) were from Coriell Repository. All the cells lines were tested for mycoplasma contamination using DNA staining protocol with Hoechst 33258 dye. Knock-down of NCoR1 was done using lentiviral mediated shRNA (SHCLNG-NM_011308) from the Sigma Mission library following standard procedures. Efficiency of knock-down was tested by immunoblot. Cell viability was measured using the CellTiter-Blue kit (Promega) 24 h after the addition of the different stressors according to manufacturer's instructions.

[4] = daily i.p. 40 mg/kg bw, p18 to p25

Structure (SMILES)	electroretinogram wave amplitude (rd10 mice; ERG at P33)	other light responses (ERG) (rd10 mice; ERG at P33)	NCoR1 expression levels (rd10 mice; WT and rd10 mice, daily i.p. 40 mg/kg bw)	mRNA levels of photoreceptor-specific proteins (rhodopsin) (rd10 mice; [4])	outer nuclear layer (ONL) thickness (rd10 mice; [4])	retinal GFAP levels (rd10 mice; [4])	retinal L2A levels (immunoblot) (rd10 mice; [4])	length of outer segments of photoreceptors (rd10 mice; daily i.p. 40 mg/kg bw, p18 to p25, vs vehicle)	effect on macroautophagy (NIH3T3 [1])	cones (opsin-positive) [2]	number of rods (rod arrestin-positive) [2]	toxicity (NIH3T3 cells)	protection against paraquat (NIH3T3 [3]; compound added after the insult, compared with AR7)	cell death under paraquat (NIH3T3 [3]; compound administered before the insult)
CC(=O)Nc1ccc(C2=Nc3ccc(Cl)cc3OC2)cc1 [CA77]	significantly higher amplitude of their b-mixed, b-phot and flicker waves	No significant differences	did not change the expression levels of NCoR1	Higher mRNA levels of photoreceptor-specific proteins	significantly thicker outer nuclear layers	strikingly lower levels of GFAP	significantly increasing retinal levels of the limiting CMA component	increased length of the outer segments of photoreceptors	did not have the inhibitory effect on macroautophagy	higher preservation also for cones	significant preservation of the number of rods	without noticeable toxicity	–	–
Clc1ccc2c(c1)OCC(c1ccc(-c3ccccc3)cc1)=N2 [CA39]	–	–	–	–	–	–	–	–	did not have the inhibitory effect on macroautophagy	–	–	without noticeable toxicity	significantly higher protection than AR7	reduced cell death
